Laboratory results from ChEMBL document CHEMBL1147813, “Design, molecular modeling, synthesis, and anti-HIV-1 activity of new indolyl aryl sulfones. Novel derivatives of the indole-2-carboxamide” (J Med Chem, 2006).

Assays:
MT4 [1] = assay: Cytotoxicity against MT4 cell line by MTT assay; type: functional; details: Homo sapiens, read-out: TC50 (the source's name)
[2] = test system: Human immunodeficiency virus 1; assay: Antiviral activity against HIV1 in MT4 cell line; type: functional, organism-based; details: Human immunodeficiency virus 1, MT4
MT4 [3] = assay: Selectivity index, TC50 for MT4 cell line/EC50 for HIV1; type: functional
C8166 [4] = assay: Antiproliferative activity against C8166 cell line by MTT assay; type: functional; details: Homo sapiens, read-out: TC50 (the source's name)
[5] = test system: Human immunodeficiency virus 1; assay: Antiviral activity against HIV1 in C8166 cell line; type: functional, organism-based; details: Human immunodeficiency virus 1, C8166
C8166 [6] = assay: Selectivity index, TC50 for C8166 cell line/EC50 for HIV1; type: functional
[7] = test system: Human immunodeficiency virus 1; assay: Antiviral activity against HIV1 3B in MT4 cell line; type: functional, organism-based; details: Human immunodeficiency virus 1, 3B
[8] = test system: Human immunodeficiency virus 1; assay: Antiviral activity against HIV1 Y181C mutant in MT4 cell line; type: functional, organism-based; details: Human immunodeficiency virus 1, MT4
[9] = test system: Human immunodeficiency virus 1; assay: Antiviral activity against HIV1 K103N-Y181C mutant in MT4 cell line; type: functional, organism-based; details: Human immunodeficiency virus 1, MT4
Lymphocyte [10] = assay: Cytotoxicity against human lymphocytes; type: functional; details: read-out: TC50 (the source's name)
[11] = test system: Human immunodeficiency virus 1; assay: Activity against HIV1 3B assessed by inhibition of p24 production in human lymphocytes; type: functional, organism-based; details: Human immunodeficiency virus 1, 3B
[12] = test system: Human immunodeficiency virus; assay: Activity against HIV-112 assessed by inhibition of p24 production in human lymphocytes; type: functional, organism-based; details: Human immunodeficiency virus 1
[13] = test system: Human immunodeficiency virus; assay: Activity against HIV-AB1 assessed by inhibition of p24 production in human lymphocytes; type: functional, organism-based; details: Human immunodeficiency virus 1
Lymphocyte [14] = assay: Selectivity index, TC50 for human lymphocytes/EC50 for HIV1 3B; type: functional
Lymphocyte [15] = assay: Selectivity index, TC50 for human lymphocytes/EC50 for HIV-112; type: functional
Lymphocyte [16] = assay: Selectivity index, TC50 for human lymphocytes/EC50 for HIV-AB1; type: functional
Macrophage [17] = assay: Cytotoxicity against human macrophages; type: functional; details: read-out: TC50 (the source's name)
[18] = test system: Human immunodeficiency virus 1; assay: Antiviral activity against HIV1 […] in human macrophages; type: functional, organism-based
Macrophage [19] = assay: Selectivity index, TC50 for human macrophages/EC50 for HIV1 […]; type: functional

SMILES | CC50 (MT4 [1]) [µM] | EC50 ([2]; read-out: EC50) [nM] | Selectivity index (MT4 [3]) | CC50 (C8166 [4]) [µM] | EC50 [5] [nM] | Selectivity index (C8166 [6]) | EC50 [7] [nM] | EC50 [8] [nM] | EC50 [9] [nM] | CC50 (Lymphocyte [10]) [µM] | EC50 [11] [nM] | EC50 [12] [nM] | EC50 [13] [nM] | Selectivity index (Lymphocyte [14]) | Selectivity index (Lymphocyte [15]) | Selectivity index (Lymphocyte [16]) | CC50 (Macrophage [17]) [µM] | EC50 [18] [nM] | Selectivity index (Macrophage [19]) | EC50 ([2]; read-out: Log EC50 (converted)) [nM]
Cc1cc(C)cc(S(=O)(=O)c2c(C(=O)NCC(N)=O)[nH]c3ccc(Cl)cc23)c1 | 45 | 10 | 4500 | > 100 | 20 | >5000 | 10 | 50 | 1200 | – | – | – | – | – | – | – | – | – | – | –
Cc1cc(C)cc(S(=O)(=O)c2c(C(=O)NCC(=O)NN)[nH]c3ccc(Cl)cc23)c1 | > 100 | 20 | >5000 | > 100 | 20 | >5000 | 20 | 60 | 2600 | – | – | – | – | – | – | – | – | – | – | –
CCOC(=O)NNC(=O)c1[nH]c2ccc(Cl)cc2c1S(=O)(=O)c1cc(C)cc(C)c1 | 100 | 20 | 5000 | > 100 | 50 | >2000 | 20 | 40 | 9200 | > 100 | 20 | 30 | 20 | >5000 | >3333 | >5000 | > 100 | 6 | >16666 | 20
Cc1cc(C)cc(S(=O)(=O)c2c(C(=O)NN3CCOC3=O)[nH]c3ccc(Cl)cc23)c1 | 100 | 0.9 | 111111 | > 100 | 3 | >33333 | 1 | 10 | 900 | > 100 | 10 | 30 | 20 | >10000 | >3333 | >5000 | > 100 | – | >50000 | 0.899
Cc1cc(C)cc(S(=O)(=O)c2c(C(=O)NNC(=O)NN)[nH]c3ccc(Cl)cc23)c1 | > 100 | 10 | >10000 | > 100 | 8 | >12500 | 40 | 20 | 5700 | > 100 | 30 | 50 | 40 | >3333 | >2000 | >2500 | > 100 | 9 | >11111 | 10
O=C(NN1CCOC1=O)c1[nH]c2ccc(Cl)cc2c1S(=O)(=O)c1ccccc1 | > 100 | 15 | >6666 | > 100 | 20 | >5000 | 15 | 300 | > 20000 | > 100 | 100 | 400 | 500 | >1000 | >250 | >200 | > 100 | 60 | >1666 | 15
O=C1Nc2ccc(Cl)cc2[C@@](C#CC2CC2)(C(F)(F)F)O1 [EFAVIRENZ] | – | – | – | – | – | – | – | – | – | > 100 | 7 | > 20000 | > 20000 | – | – | – | – | – | – | –
Cc1ccnc2c1NC(=O)c1cccnc1N2C1CC1 [NEVIRAPINE] | – | – | – | – | – | – | 370 | – | – | > 100 | 90 | > 20000 | > 20000 | >1111 | – | – | – | – | – | –
